We go through one compound from article PMC7686308, “Overcoming the blood–brain barrier by Annexin A1-binding peptide to target brain tumours” (British Journal of Cancer, 2020).

Structures are written as SMILES. Entries after “also recorded” stand apart in the source; their conditions may differ. Peptide text beside a SMILES is read from it. * marks the point of attachment. X1 = CCc1c2c(nc3ccc(OC(=O)C4CCC(CNC(=O)C5CCC(CN6C(=O)CC(*)C6=O)CC5)CC4)cc13)-c1cc3c(c(=O)n1C2)COC(=O)[C@]3(O)CC

Data set [1] deals with C6-Luc brain tumours. Put plainly: C6-Luc brain tumour in nude mice, Solutol HS15 formulation. The data set is classed as in vivo, rat tumour cells in nude mice. Conditions: 2.5 μmoles/kg i.v. daily for 7 days, 10% Solutol HS15. As for the experimental part:
(§1) C6-Luc cells (5 × 10^4 suspended in 2 μl PBS) were injected into C57BL/6 mouse brain striatum using a stereotaxic frame as described previously.[21] Seven days later, mice underwent imaging for luciferase-expressing tumours. To do so, 100 μl luciferin (30 mg/ml PBS) was injected peritoneally. Mice were then anesthetised under isoflurane gas (20 ml/min) supplemented with oxygen (1 ml/min) and placed under a camera equipped with a Xenogen IVIS 200 imager at both the SBP and AIST animal facilities. Photon numbers were measured for 1–10 sec or for 1 min. For the dual-tumour model, C6-Luc cells were similarly injected into the brain of NOD-SCID mice. When a brain tumour became detectable by IVIS imager, C6-Luc cells (2 × 10^5 suspended in 100 μl PBS) were injected subcutaneously into the dorsal flank of the same mice. Photon numbers in brain and subcutaneous tumours were measured using the IVIS imager. The dual-tumour model was also produced using B16-Luc cells in the isogeneic C57BL/6 mouse. B16-Luc cells (5 × 10^4) were injected into brains of 8–10-weeks-old C57BL/6 female mice as described above for C6-Luc cells. […]
Fig. 5 Therapeutic effect of IF7C(RR)-SN38 formulated with Solutol HS15. a Effect of IF7C(RR)-SN38 on B16-Luc brain tumours in C57BL/6 mice. b Effect of IF7C(RR)-SN38 on C6-Luc brain tumours in nude mice. […] Statistical analysis was assessed by Student’s t-test.

Data set [2] relates to C6-Luc brain and subcutaneous tumours. Description: C6-Luc dual-tumour model in NOD-SCID mice. The data set is classed as in vivo, rat tumour cells in NOD-SCID mice. The procedure:
as §1, with “cells. When brain tumours became detectable, B16-Luc cells (2 × 10^5 cells) were injected subcutaneously into the dorsal flank of the same mouse.” for “cells.”
Next, to compare drug dosages required to suppress growth of brain versus subcutaneous tumours in vivo, we undertook experiments with a dual-tumour model, in which a single SCID mouse received C6-Luc cells both in brain and under the skin (Fig. 4a, Supplementary Fig. 8A). Mice were then injected intravenously with IF7C(RR)-SN38 and tumour growth in both locations was assessed in vivo by photon number.
Fig. 4 Effect of IF7C(RR)-SN38 on the dual-tumour model mice. a Dual-tumour model was established with C6-Luc cells in NOD-SCID mice. […] Growth of B16-Luc cells were monitored as in a similar manner as in a, followed by intravenous injection with either IF7C(RR)-SN38 (7.0 μmoles/kg), irinotecan (CPT-11) (50 μmoles/kg) or buffer control daily for 6 days. […] Statistical analysis was assessed by Student’s t-test.

In data set [3] the test system is C6 cells. Put plainly: Cytotoxicity on C6 cells (CellTiter Glo). In kind it is cell-based, rat. As for the experimental part: (§2) Drug concentration (OM) Drug concentration ( nM) […]
(§3) Supplementary Fig 7 . Cytotoxicity of peptide-conjugated SN38, free peptide s and unconjugated SN-38 and irinotecan (CPT-11) on C6 and B16 cells cultured in vitro. Rat glioma C6 and mouse melanoma B16 cells were treated with reagents shown along the top panels at the concentration indicated and cultured for 2 days. Cell viability was determined by a CellTiter Glo (Promega) assay. The IC50 of each reagent was determined using GraphPad Prism program. N.D.: not determined.
On the technique in general: Cellular ATP, detected with luciferase, serves as a proxy for viable cell number.

In data set [4] the test system is B16-Luc cells. Description: B16-Luc rechallenge of brain tumour-recovered mice. The following applies: mice recovered from brain B16-Luc tumours after treatment; 4 days after s.c. injection. In kind it is in vivo, mouse (C57BL/6). As for the experimental part: (§4) The presence of tumour-infiltrating lymphocytes, especially CD8^+ cytotoxic T cells, is correlated with better prognosis of various cancers.[32],[33] To assess possible involvement of cytotoxic T cells in an antitumour response by host mice, we injected two isogenic cell lines, B16-Luc and LL/2-Luc, into naïve C57BL/6 mice and also into C57BL/6 mice that recovered from brain B16-Luc tumours following IF7C(RR)-SN38 treatment. When these cells were injected subcutaneously in a naïve mouse, both lines formed tumours (Fig. 6a, left).
(§5) Fig. 6 Immunological rejection of the cancer cells from the mouse recovered from brain tumour by IF7C(RR)-SN38 therapy. a Growth of two syngeneic cancer lines in naïve and brain tumour-recovered mice 4 days after subcutaneous injection of LL/2-Luc or B16-Luc cells. b Immunohistochemistry with anti-CD8 antibody of B16-Luc cells at subcutaneous injection sites, 20 h after B16-Luc cell injection. Scale bars: 100 μm. c Quantitative analysis of CD8^+ cells in subcutaneous injection sites.

The subject of data set [5] is B16-Luc brain and subcutaneous tumours. Put plainly: B16-Luc dual-tumour model in C57BL/6 mice. The data set is classed as in vivo, mouse (C57BL/6). As for the experimental part:
(§6) C6-Luc cells (5 × 10^4 suspended in 2 μl PBS) were injected into C57BL/6 mouse brain striatum using a stereotaxic frame as described previously.[21] Seven days later, mice underwent imaging for luciferase-expressing tumours. To do so, 100 μl luciferin (30 mg/ml PBS) was injected peritoneally. Mice were then anesthetised under isoflurane gas (20 ml/min) supplemented with oxygen (1 ml/min) and placed under a camera equipped with a Xenogen IVIS 200 imager at both the SBP and AIST animal facilities. Photon numbers were measured for 1–10 sec or for 1 min. For the dual-tumour model, C6-Luc cells were similarly injected into the brain of NOD-SCID mice. When a brain tumour became detectable by IVIS imager, C6-Luc cells (2 × 10^5 suspended in 100 μl PBS) were injected subcutaneously into the dorsal flank of the same mice. Photon numbers in brain and subcutaneous tumours were measured using the IVIS imager. The dual-tumour model was also produced using B16-Luc cells in the isogeneic C57BL/6 mouse. B16-Luc cells (5 × 10^4) were injected into brains of 8–10-weeks-old C57BL/6 female mice as described above for C6-Luc cells. When brain tumours became detectable, B16-Luc cells (2 × 10^5 cells) were injected subcutaneously into the dorsal flank of the same mouse.
(§7) IF7C(RR)-SN38 was injected intravenously through the tail vein into tumour-bearing mice once photon number of C6-Luc brain tumour reached 5 × 10^4, which usually occurred after 2 weeks. IF7C(RR)-SN38 (142 μg or 0.0567 μmoles) dissolved in 10 μl dimethylsulfoxide (DMSO) diluted with 100 μl of 50% Cremophore EL in ethanol plus 90 μl PBS was injected intravenously through the tail vein. As the average body weight of a mouse was 18 g, IF7C(RR)-SN38 dose per injection was 3.15 μmoles/kg. For B16-Luc brain tumours, IF7C(RR)-SN38 formulated with Cremophore EL was used at the dosage 7.0 μmoles/kg. Irinotecan (CPT-11), a water soluble SN38 prodrug, was dissolved in PBS and intravenously injected into mice at 50 μmoles /kg. In another set of experiments, brain tumour-bearing mice were treated with IF7C(RR)-SN38 (100 μg or 0.0412 μmoles) dissolved in 10 μl DMSO followed by dilution with 100 μl 10% Solutol HS15 in water. In that case, drug dosage was 2.5 μmoles/kg. Similarly formulated C(RR)-SN38 served as control.
Fig. 4 Effect of IF7C(RR)-SN38 on the dual-tumour model mice. a Dual-tumour model was established with C6-Luc cells in NOD-SCID mice. C6-Luc cells were grown both in brain and under the skin of mice. When tumours in brain and subcutaneous grew by showing photon number more than 2×10^4, IF7C(RR)-SN38 (3.15 μmoles/kg) was injected intravenously daily through tail vein for 9 days. b Effect of IF7C(RR)-SN38 on a dual-tumour model with B16-Luc melanoma cells in C57BL/6 mice. Growth of B16-Luc cells were monitored as in a similar manner as in a, followed by intravenous injection with either IF7C(RR)-SN38 (7.0 μmoles/kg), irinotecan (CPT-11) (50 μmoles/kg) or buffer control daily for 6 days. The drug was diluted in Cremophore EL. In each a and b, error bars denote means ± SEM. Statistical analysis was assessed by Student’s t-test.

Data set [6] has as its system LL/2-Luc cells. Put plainly: LL/2-Luc rechallenge of brain tumour-recovered mice. In kind it is in vivo, mouse (C57BL/6). Conditions: mice recovered from brain B16-Luc tumours after treatment; 4 days after s.c. injection. The procedure: as §4, §5
In data set [7] the test system is B16 cells. Put plainly: Cytotoxicity on B16 cells (CellTiter Glo). The data set is classed as cell-based, mouse. As for the experimental part:
as §2, §3

Data set [8] can be described thus: LC-MS/MS analysis of SN38 in brain tumours. In kind it is in vivo, mouse. Conditions: mice intravenously injected with IF7C(RR)-SN38.
Data set [9] deals with CD8+ T cells. Description: CD8+ cell infiltration at B16-Luc injection site (immunohistochemistry). The data set is classed as in vivo, mouse (C57BL/6). The following applies: recovered C57BL/6 mice; 20 h after B16-Luc s.c. injection (naïve: 0.2 cells/HPF). The procedure:
as §5

Data set [10] concerns B16-Luc brain tumours. Description: B16-Luc brain tumour in C57BL/6 mice, Solutol HS15 formulation. Conditions: 2.5 μmoles/kg i.v. daily for 7 days. The data set is classed as in vivo, mouse (C57BL/6). The procedure:
as §6, §7
Fig. 5 Therapeutic effect of IF7C(RR)-SN38 formulated with Solutol HS15. a Effect of IF7C(RR)-SN38 on B16-Luc brain tumours in C57BL/6 mice. b Effect of IF7C(RR)-SN38 on C6-Luc brain tumours in nude mice. In these experiments, drug dosage was 2.5 μmoles/kg each for IF7C(RR)-SN38 or C(RR)-SN38 (control), diluted with 10% Solutol HS15 in water and administered daily for 7 days. Note that the B16 brain tumours continued shrinking after ceasing administration of IF7C(RR)-SN38 in C57BL/6 mice. In each a and b, error bars denote means ± SEM. Statistical analysis was assessed by Student’s t-test.

[11] abbreviates: 3.15 μmoles/kg i.v. daily, 9 days, Cremophore EL.
Where [12] appears, read: 7.0 μmoles/kg i.v. daily, 6 days, Cremophore EL.

For the compound `CCc1c2c(nc3ccc(OC(=O)C4CCC(CNC(=O)C5CCC(CN6C(=O)CC(SC[C@H](NC(=O)[C@H](CCCNC(=N)N)NC(=O)[C@H](CCC(N)=O)NC(=O)[C@H](Cc7c[nH]c8ccccc78)NC(=O)[C@H](CC(C)C)NC(=O)[C@H](CC(C)C)NC(=O)[C@H](Cc7ccccc7)NC(=O)[C@@H](N)[C@@H](C)CC)C(=O)N[C@@H](CCCNC(=N)N)C(=O)N[C@@H](CCCNC(=N)N)C(=O)O)C6=O)CC5)CC4)cc13)-c1cc3c(c(=O)n1C2)COC(=O)[C@]3(O)CC` (stereo partly drawn) [IF7C(RR)-SN38] (H-IFLLWQRC(X1)RR-OH; N-terminus and C-terminus assumed), in data set [1], the “C6-Luc brain tumour growth” value is on record as “suppressed the tumour growth” and the “complete disappearance of C6-Luc brain tumours” value was “did not promote complete disappearance of brain tumours”. Further, in data set [2] (setting [11]), the “brain tumour growth (photon number)” value is “significantly suppressed tumour growth relative to buffer controls” and the “subcutaneous tumour growth (photon number)” value is “significantly suppressed tumour growth relative to buffer controls”. Moreover, in data set [2] (3.15 μmoles/kg, C6-Luc, NOD-SCID), the “brain versus subcutaneous tumour effect” value is “effect of IF7C(RR)-SN38 on brain tumours is comparable to that on subcutaneous tumours”. This compound also had a logIC50 in [3] (C6, 2 days, CellTiter Glo, GraphPad Prism) of 1.812. In data set [3] (in vitro, C6 cells), the “cytotoxic activity compared with free SN38” value was “comparable to those of free SN38”. Also, in [4], the “B16-Luc tumour formation after s.c. rechallenge” value is “B16-Luc tumours did not appear”. Moreover, in [5] (setting [12]), the “brain tumour growth (photon number)” value is “significantly antagonised growth of both brain and subcutaneous tumours compared to buffer controls”; the “subcutaneous tumour growth (photon number)” value is “significantly antagonised growth of both brain and subcutaneous tumours compared to buffer controls”. The “brain versus subcutaneous tumour effect” value in data set [5] (7.0 μmoles/kg, B16-Luc, C57BL/6) was “effect of IF7C(RR)-SN38 on brain tumours is comparable to that on subcutaneous tumours”. The “LL/2-Luc tumour formation after s.c. challenge” value in data set [6] is given as “LL/2-Luc tumours grew”. Also, in data set [7] (B16, 2 days, CellTiter Glo, GraphPad Prism), the logIC50 is recorded as 2.171. Also, the “cytotoxic activity compared with free SN38” value in data set [7] (in vitro, B16 cells) is on record as “comparable to those of free SN38”. The “SN38 in brain tumours” value in data set [8] is recorded as “did not detect SN38 in brain tumours”. Also, the “CD8+ cell infiltration at injection sites” value in [9] turned out to be 92.2 cells/HPF. In [10] (10% Solutol HS15), the “B16-Luc brain tumour response during the first week” value is reported as “tumours began shrinking during the first week of daily injections”; the “B16-Luc brain tumour, final outcome” value is “completely disappeared; also recorded: complete disappearance of brain tumours”; the “survival after cessation of treatment without signs of B16-Luc cell growth” value is listed as “more than 3 months”. For the same compound, in data set [10] (10% Solutol HS15 in water), the “therapeutic effect with Solutol HS15 relative to Cremophore EL” value is recorded as “significantly improved”. The “B16-Luc brain tumour response, second week without injection” value in data set [10] (then no drug) is reported as “continued shrinking during the second week without drug injection”.
